Experiment: in vitro
Conditions: human, hela cells

SMILES | viability at 28.5 h, 10 µM (% viability) [%] | further results
COc1cc2cc(O)c(C)c(NCc3ccco3)c2cc1OC [CBK013723] | 84.4 | –
CC1CC(NC(=S)NCc2csc3ccccc23)CC(C)(C)C1 (stereo not shown) [CBK013824] | 90.9 | –
CCn1c(CN2CCN(Cc3ccc4c(c3)OCO4)CC2)n[nH]c1=S [CBK013828] | 105 | –
CN(C)c1cccc(OCCn2ccnc(N3CCNCC3)c2=O)c1 [CBK013866F] | 114 | –
S=c1[nH]nc(CN2CCSCC2)n1-c1ccc(Cl)cc1 [CBK013868] | 105 | –
CC(C)(N)CN(Cc1ccccc1)C(=O)/C=C/c1ccccc1 [CBK013891T] | 90.8 | –
Clc1ccc(OCCOc2nccnc2N2CCNCC2)cn1 [CBK014049G] | 92.5 | –
CN(C)S(=O)(=O)N1CC2(CCN(C(=O)[C@@H]3CN(C(=O)C(C)(C)NC(=O)OC(C)(C)C)C[C@H]3c3cc4ccccc4o3)CC2)c2ccccc21 [CBK014088] | 89 | –
Cc1c(Cl)cccc1S(=O)(=O)N1CCCN(c2nc3ccc(Cl)cc3s2)CC1 [CBK014131] | 95.6 | –
O=S(=O)(Nc1nc(-c2sccc2Cl)cs1)c1cc(Cl)ccc1Cl [CBK014147] | 94.2 | –
O=C(c1ccccc1)c1cccc(OCCOc2nccnc2N2CCNCC2)c1 [CBK014250G] | 96.1 | –
FC(F)(F)Oc1cccc(OCCOc2nccnc2N2CCNCC2)c1 [CBK014323G] | 100 | –
OCCOc1cccc(OCCOc2nccnc2N2CCNCC2)c1 [CBK014339G] | 112 | –
CC1(C)Cc2c(oc(N)c2C#N)CO1 [CBK014395] | 101 | –
S=c1[nH]nc(COc2ccccc2)n1C1CCCCC1 [CBK014411] | 96.2 | –
COCCN(C(=O)CCC(=O)NCCc1ccccc1)C1CCN(C)CC1 [CBK014576] | 96.9 | –
Cn1c(S)nnc1-c1ccccc1O [CBK014577] | 111 | –
CC(C)(N)C(=O)N1CC(C(=O)NCCN(Cc2ccccc2)S(C)(=O)=O)C(c2ccccc2)C1 (stereo not shown) [CBK014706T] | 93.3 | –
c1ccc2c(COc3nccnc3N3CCNCC3)ccnc2c1 [CBK014866] | 90.3 | –
Oc1ccc(-c2n[nH]c(=S)n2-c2ccccc2)cc1 [CBK014887] | 113 | –
c1cncc(CCOc2nccnc2N2CCNCC2)c1 [CBK014992] | 101 | –
CC(=O)Nc1ccc(/N=C/c2ccc(Cl)cc2)cc1 [CBK015166] | 92.3 | –
COc1ccc(CCNC(=S)NC2CC3CCC2C3)cc1OC (stereo not shown) [CBK015410] | 90.8 | –
COc1cccc(CNC(C(=O)O)c2ccc3c(c2)OCO3)c1 (stereo not shown) [CBK015420D] | 89.1 | –
O=C(Nc1ccccn1)Nc1ccccn1 [CBK015518] | 95.5 | –

SMILES | viability at 28.5 h, 10 µM (% viability) [%] | further results
CCCc1cc(C(N)=O)cc(CCC)c1OCC [CBK015537] | 98 | –
CC(CN(C)C)C(=O)c1cn(C)c2ccccc12 (stereo not shown) [CBK015540] | 102 | –
Cc1c(C(=O)O)[nH]c2c1C(=O)CCC2 [CBK015548] | 97.5 | –
COc1ccc(C(=O)N(C)C)cc1OC [CBK015550] | 115 | –
O=C(Nc1ccccc1)OC1CCCCC1 [CBK015569] | 116 | –
Cc1cc2ccccc2c(=O)n1CCO [CBK015621] | 102 | –
O=c1nc(O)c(I)cn1C1OC(CO)C(O)C1O (stereo not shown) [CBK015625] | 82.3 | –
CN1CCCC1c1cccnc1 (stereo not shown) [CBK015659] | 94 | –
COc1ccc(O[C@@H]2CCCC[C@@H]2N2CCCCC2)cc1 [CBK015661C] | 90.6 | –
CC(C)NC(=O)c1ccc(Cl)cc1 [CBK015665] | 101 | –
O=[N+]([O-])c1ccccc1S(=O)(=O)Nc1cc(C(F)(F)F)ccc1Cl [CBK015721] | 93.3 | –
COc1ccc2c(c1)CCC(c1ccccc1)=C2c1ccc(OCC(O)CN)cc1 (stereo not shown) [CBK015723C] | 70.5 | –
N#Cc1ccc(N)c2ccccc12 [CBK015754] | 90.6 | –
O=C1NCCc2c1[nH]c1ccc(Cl)cc21 [CBK015755] | 38.9 | –
CC(C)(C)O/N=C/c1cccnc1 [CBK015761C] | 109 | –
O=C1NCCc2c1[nH]c1c(Cl)cccc21 [CBK015762] | 78.2 | –
Cc1ccccc1Oc1ccccc1NC(=O)CN1CCCCC1 [CBK015781C] | 98.3 | –
CN(C)/N=C\c1cccc(O)c1 [CBK015814] | 95.2 | –
CC1CCCC(C)N1CC(=O)Nc1ccccc1Oc1ccccc1 (stereo not shown) [CBK015824C] | 119 | –
CCOC(=O)c1c(-c2ccccc2)csc1NS(=O)(=O)c1ccc(C)cc1 [CBK015841] | 95.1 | –
Cc1cnoc1-c1cc(Cl)cc(Cl)c1O [CBK015870] | 89.3 | –
Cc1cc(OCCC#N)cc(C)c1Cl [CBK015872] | 98.2 | –
CCN(CC)CCC(=O)c1ccc(Cl)cc1 [CBK015906C] | 101 | –
CO[C@]1(c2cccc(C)c2)CC[C@@H](N2CCCCC2)CC1 [CBK015909G] | 83 | –
CNCCCC1(c2ccccc2)SC(C)(C)c2ccccc21 (stereo not shown) [CBK015933C] | 90.6 | –

SMILES | viability at 28.5 h, 10 µM (% viability) [%] | further results
O=C(NCCc1ccccn1)c1ccc(Cl)cc1Cl [CBK015946] | 81.4 | –
Fc1ccc(C2CCc3n[nH]cc3C2)cc1 (stereo not shown) [CBK015957C] | 92 | –
C/C(=N/NC(=O)C(C)CN1CCOCC1)c1ccc(Cl)cc1 (stereo not shown) [CBK016045] | 81.4 | –
COc1ccc2c(c1)CC1(CCC(NCCCC(=O)c3ccc(F)cc3)CC1)C2 (stereo not shown) [CBK016054C] | 87.1 | –
CN(C)CCCn1nc2n(c1=O)-c1ccccc1SC(c1ccccc1)C2 (stereo not shown) [CBK016063] | 105 | –
Cc1ccc(-c2ccn(C(C)C(=O)N(C)C)n2)cc1 (stereo not shown) [CBK016069] | 98.4 | –
S=C(NCC1CCN(C(=S)Nc2cccc3ccccc23)CC1)Nc1cccc2ccccc12 [CBK016070] | 107 | –
Cc1nnc2n1-c1ccc(Cl)cc1C(c1ccccc1)=NN2CCCC(=O)c1ccc(F)cc1 [CBK016076] | 86.6 | –
Cc1cn(C(C)C(=O)N(C)C)nc1C1CCCCC1 (stereo not shown) [CBK016092] | 113 | –
ON=C1CCC(c2ccccc2)CC1 (stereo not shown) [CBK016102] | 113 | –
CCCN(C(C)C(=O)N(C)C)S(=O)(=O)c1ccc(Cl)cc1 (stereo not shown) [CBK016123] | 96.8 | –
O=C(O)c1ccc(-n2cccc2)cc1 [CBK016141] | 110 | –
CC(Oc1cccc2ccccc12)C(=S)N(C)c1ccccc1 (stereo not shown) [CBK016158] | 88.2 | –
Cc1cc(Br)ccc1S(=O)(=O)N(C)c1ccc(N2CCNCC2)c2ccccc12 [CBK016170C] | 96 | –
OCc1nc2cc3cn[nH]c3cc2[nH]1 [CBK016203] | 86.5 | –
OC(CN[C@H]1CC[C@](O)(c2ccc(Cl)cc2)CC1)c1ccccc1 (stereo partly shown) [CBK016206] | 98.4 | –
COc1ccc(C23CCCN(C)C2C[C@@H](O)CC3)cc1OC (stereo partly shown) [CBK016226C] | 94.1 | –
CC(C)CCc1ccc(C#N)c(=O)[nH]1 [CBK016227] | 98.8 | –
O=C(O)c1ccccc1C1SCCCS1 [CBK016303] | 91.4 | –
S=c1[nH]nnn1-c1ccc(Cl)c(Cl)c1 [CBK016327] | 96.7 | –
CN(C)[C@@H]1C[C@H](C2(c3ccccc3)OCCO2)CC[C@H]1N(C)C(=O)Cc1ccc(Cl)c(Cl)c1 [CBK016338] | – | viability at 28.5 h, 10 µM: 87.8%
c1ccc2sc(SCCN3CCCCC3)nc2c1 [CBK016366] | 109 | –
COc1cccc(-n2c(C)nnc2C2(OC(C)=O)CCN(CCc3ccccc3)CC2)c1 [CBK016371] | 108 | –
O=C(C[S+]([O-])c1nc2ccccc2[nH]1)N1CCOCC1 (stereo not shown) [CBK016397] | 98.1 | –
O=C(O)COCc1nn(-c2ccc(Br)cc2)c2c1CCCC2 [CBK016404] | 98.6 | –

SMILES | viability at 28.5 h, 10 µM (% viability) [%] | further results
CCCN1CCCC(c2cccc(O)c2)C1 (stereo not shown) [CBK016405B] | 92.6 | –
Cc1cccc(C)c1NC(=S)N1CCC2(CC1)OCCO2 [CBK016408] | 117 | –
CCCC(=O)C1(c2ccccc2)CCN(C(=O)Nc2cccc(SC)c2)CC1 [CBK016441] | – | viability at 28.5 h, 10 µM (% viability, bulk resorufin, single well): 94.6%
COc1ccc2c3c(cc(Cl)cc13)CC(N)C2 (stereo not shown) [CBK016450C] | 84.2 | –
Cc1nc(O)c2c3c(sc2n1)CCCC3 [CBK016462] | 83.1 | –
CCc1c(CC)c(OC(=O)C(N)C(C)C)c2ccccc2c1OC (stereo not shown) [CBK016484C] | 93.4 | –
CC(C)(C)C(=O)c1cnc2sc3ccccc3n12 [CBK016512] | 91.6 | –
CCC1C(c2ccc(C)cc2)=CCC(C(=O)NCCCN(C)C)C1C (stereo not shown) [CBK016514] | 79.6 | –
COC(=O)c1cc(NC(=O)OC(C)(C)C)ccc1O [CBK016529] | 86 | –
CC(=O)c1c(CSc2ccccc2)nn2c1CCCC2 [CBK016543] | 78.9 | –
O=[N+]([O-])c1ccc(N2CCCCC2)s1 [CBK016566] | 104 | –
COc1ccc2[nH]cc(CCNC3CCc4cccc(OC)c4C3)c2c1 (stereo not shown) [CBK016569C] | 80.1 | –
CCCN(CC1CC1)C1CCc2cccc(C(N)=O)c2C1 (stereo not shown) [CBK016579] | 114 | –
CCC(C)(C)NC(=NC#N)Nc1cccnc1 [CBK016580] | 85.1 | –
CC(=O)Oc1ccc2c(=O)cc(N(C)C)oc2c1C [CBK016581] | 60.5 | –
S=C(NC1=NCCS1)Nc1ccccc1 [CBK016591] | 95.2 | –
CC(C)c1noc(-c2ncn3c2c(=O)n(C(C)C)c2cc(F)ccc23)n1 [CBK016659] | 102 | –
Cc1c(C)n(C)c2nc(N3CCCC3)nc(N3CCCC3)c12 [CBK016683C] | 90.1 | –
CCC(c1c(O)c2ccccc2oc1=O)c1cccc2ccccc12 (stereo not shown) [CBK016684] | 102 | –
O=c1[nH]c2cccc3c2n1C[C@H](NCCc1ccccc1)C3 [CBK016688C] | 105 | –
O=c1oc2ccccc2c(O)c1Cc1c(O)c2ccccc2oc1=O [CBK016703G] | 74 | –
CC(C)Nc1cccnc1N1CCN(C(=O)c2ccncc2)CC1 [CBK016714] | 79 | –

Source: publication PMC12040169 (PLOS Biology, 2025)
